Results from patent US20120122969A1, “TREATMENT OF PERVASIVE DEVELOPMENTAL DISORDERS WITH TOCOTRIENOLS OR TOCOTRIENOL ENRICHED EXTRACTS” (AMPERE LIFE SCIENCES, INC., priority 2009, published 2012).

Tested on: Human Dermal Fibroblasts from Autistic Patients
Assay: Rescue of ASD fibroblasts stressed by addition of L-buthionine-(S,R)-sulfoximine (BSO), Calcein AM viability readout
Assay type: cell-based
Settings: 1 mM BSO, 48 hours, Calcein AM fluorescence, viability relative to non-BSO treated fibroblasts (100%); read-out: EC50 of protection against ASD (rescue of BSO-stressed ASD fibroblasts)
Protocol: A screen was performed to identify compounds effective for the amelioration of ASD. Test samples, and solvent controls were tested for their ability to rescue ASD fibroblasts stressed by addition of L-buthionine-(S,R)-sulfoximine (BSO).
MEM (a medium enriched in amino acids and vitamins, catalog no. Gibco 11965) and Fetal Calf Serum were obtained from Invitrogen. Basic fibroblast growth factor and epidermal growth factor were purchased from PeproTech. Penicillin-streptomycin-glutamine mix, L-buthionine (S,R)-sulfoximine, and insulin from bovine pancreas were purchased from Sigma. Calcein AM was purchased from Molecular Probes. Cell culture medium (ATP) was made by combining 75 ml Fetal Calf Serum, 100 U/ml penicillin, 100 μg/ml streptomycin, 2 mM glutamine, 10 ng/ml EGF, and 10 ng/ml bFGF; MEM EBS was added to make the volume up to 500 ml. A 10 mM BSO solution was prepared by dissolving 444 mg BSO in 200 ml of medium with subsequent filter-sterilization. […]
100 μl of PBS containing 1.2 μM Calcein AM were then added to each well. […] After that time the PBS was discarded, the plate gently tapped on a paper towel and fluorescence (excitation/emission wavelengths of 485 nm and 525 nm, respectively) was read on a Gemini fluorescence reader. […]
The viability of non-BSO treated fibroblasts was set as 100%, and the viability of the BSO- and compound-treated cells was calculated as relative to this value.

alpha-tocotrienol
EC50: < 50 nM
